In ChEMBL document CHEMBL2163293, “Rational approaches to improving selectivity in drug design” (J Med Chem, 2012):

Biological target: Protease (Human immunodeficiency virus 1, UniProt Q9YQ12)
Test: Inhibition of HIV1 protease

Chain of Protease (Q9YQ12 whole entry): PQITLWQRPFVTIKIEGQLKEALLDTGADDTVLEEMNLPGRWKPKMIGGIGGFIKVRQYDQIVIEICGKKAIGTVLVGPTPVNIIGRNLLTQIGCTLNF

CC(=O)N[C@H](C(=O)N[C@H](C(=O)N[C@@H](CC(C)C)[C@@H](O)CC(=O)N[C@@H](C)C(=O)N[C@@H](CC(C)C)[C@@H](O)CC(=O)O)C(C)C)C(C)C [ACETYLPEPSTATIN]
Ki: 0.02 nM
